Experiment [1] concerns the target Phosphatidylinositol 4-phosphate 3-kinase C2 domain-containing subunit beta (Homo sapiens) (UniProt O00750). The experiment is described as follows: Inhibition of wild-type human partial length PIK3C2B (M1 to L1634 residues) expressed in mammalian expression system assessed as residual activity at 1 uM by Kinomescan method relative to control.
For experiment [2], the target named is Macrophage colony-stimulating factor 1 receptor (Homo sapiens) (UniProt P07333). The experiment is described as follows: Inhibition of wild-type human partial length CSF1R (I564 to S939 residues) expressed in bacterial expression system assessed as residual activity at 1 uM by Kinomescan method relative to control.
Experiment [3] deals with Cyclin-dependent kinase 16 (Homo sapiens) (UniProt Q00536). Description: Inhibition of wild-type human partial length PCTK1 (G160 to A474 residues) expressed in mammalian expression system assessed as residual activity at 1 uM by Kinomescan method relative to control.
In experiment [4] the target is Serine/threonine-protein kinase 32C (Homo sapiens) (UniProt Q86UX6). Description: Inhibition of wild-type human partial length YANK3 (M68 to G486 residues) expressed in bacterial expression system assessed as residual activity at 1 uM by Kinomescan method relative to control.
In experiment [5] the target is Fibroblast growth factor receptor 4 (Homo sapiens) (UniProt P22455). The experiment is described as follows: Inhibition of wild-type human partial length FGFR4 (G402 to E713 residues) expressed in bacterial expression system assessed as residual activity at 1 uM by Kinomescan method relative to control.
Experiment [6] deals with Protein kinase C epsilon type (Homo sapiens) (UniProt Q02156). Description: Inhibition of wild-type human partial length PRKCE (A378 to P737 residues) expressed in mammalian expression system assessed as residual activity at 1 uM by Kinomescan method relative to control.
Experiment [7] addresses MAP/microtubule affinity-regulating kinase 3 (Homo sapiens) (UniProt P27448). The experiment is described as follows: Inhibition of wild-type human full length MARK3 (M1 to L729 residues) expressed in bacterial expression system assessed as residual activity at 1 uM by Kinomescan method relative to control.
The target in experiment [8] is RAC-alpha serine/threonine-protein kinase (Homo sapiens) (UniProt P31749). Description: Inhibition of wild-type human partial length AKT1 expressed in bacterial expression system assessed as residual activity at 1 uM by Kinomescan method relative to control.
Experiment [9] has as its system BT-483. The experiment is described as follows: Induction of apoptosis in human BT-483 cells assessed as necrotic cells at 5 uM by Annexin V-FITC/propidium iodide staining based flow cytometry (reference value: 0.18%). The format is functional.
The target of experiment [10] is Serine/threonine-protein kinase DCLK1 (Homo sapiens) (UniProt O15075). The experiment is described as follows: Inhibition of wild-type human partial length DCAMKL1 (L270 to A662 residues) expressed in mammalian expression system assessed as residual activity at 1 uM by Kinomescan method relative to control.
Experiment [11] has as its target MAP kinase-activated protein kinase 2 (Homo sapiens) (UniProt P49137). Description: Inhibition of wild-type human partial length MAPKAPK2 (V48 to D345 residues) expressed in bacterial expression system assessed as residual activity at 1 uM by Kinomescan method relative to control.
Experiment [12] has as its target Inhibitor of nuclear factor kappa-B kinase subunit alpha (Homo sapiens) (UniProt O15111). The experiment is described as follows: Inhibition of wild-type human full length IKK-alpha (M1 to E745 residues) expressed in mammalian expression system assessed as residual activity at 1 uM by Kinomescan method relative to control.
In experiment [13] the target is Mitogen-activated protein kinase kinase kinase 9 (Homo sapiens) (UniProt P80192). Description: Inhibition of wild-type human partial length MLK1 (V88 to W426 residues) expressed in bacterial expression system assessed as residual activity at 1 uM by Kinomescan method relative to control.
For experiment [14], the system named is BT-483. Description: Induction of autophagy in human BT-483 cells assessed as activation of LC3 at 5 to 10 uM by Western blot analysis. Format: functional, cell-based. A general note: A western blot detects proteins with antibodies after separation by electrophoresis.
Experiment [15] deals with Cyclin-dependent kinase 9 (Homo sapiens) (UniProt P50750). The experiment is described as follows: Inhibition of wild-type human full length CDK9 (M1 to F372 residues) expressed in bacterial expression system assessed as residual activity at 1 uM by Kinomescan method relative to control.
The target of experiment [16] is Ephrin type-A receptor 2 (Homo sapiens) (UniProt P29317). The experiment is described as follows: Inhibition of wild-type human partial length EPHA2 (T593 to V891 residues) expressed in bacterial expression system assessed as residual activity at 1 uM by Kinomescan method relative to control.
Experiment [17] deals with Insulin-like growth factor 1 receptor (Homo sapiens) (UniProt P08069). Description: Inhibition of wild-type human partial length IGF1R (L972 to D1294 residues) expressed in bacterial expression system assessed as residual activity at 1 uM by Kinomescan method relative to control.
Experiment [18] addresses Serine/threonine-protein kinase PLK1 (Homo sapiens, UniProt P53350). Description: Inhibition of full length human PLK1 using casein as substrate after 40 mins in presence of [gamma-33P]-ATP by radiometric assay.
The target in experiment [19] is Proto-oncogene tyrosine-protein kinase Src (Homo sapiens) (UniProt P12931). Description: Inhibition of wild-type human partial length SRC (L240 to L536 residues) expressed in bacterial expression system assessed as residual activity at 1 uM by Kinomescan method relative to control.
Experiment [20] addresses T1, Eukaryotic elongation factor 2 kinase (Homo sapiens) (UniProt O00418).
T1 sequence (whole entry): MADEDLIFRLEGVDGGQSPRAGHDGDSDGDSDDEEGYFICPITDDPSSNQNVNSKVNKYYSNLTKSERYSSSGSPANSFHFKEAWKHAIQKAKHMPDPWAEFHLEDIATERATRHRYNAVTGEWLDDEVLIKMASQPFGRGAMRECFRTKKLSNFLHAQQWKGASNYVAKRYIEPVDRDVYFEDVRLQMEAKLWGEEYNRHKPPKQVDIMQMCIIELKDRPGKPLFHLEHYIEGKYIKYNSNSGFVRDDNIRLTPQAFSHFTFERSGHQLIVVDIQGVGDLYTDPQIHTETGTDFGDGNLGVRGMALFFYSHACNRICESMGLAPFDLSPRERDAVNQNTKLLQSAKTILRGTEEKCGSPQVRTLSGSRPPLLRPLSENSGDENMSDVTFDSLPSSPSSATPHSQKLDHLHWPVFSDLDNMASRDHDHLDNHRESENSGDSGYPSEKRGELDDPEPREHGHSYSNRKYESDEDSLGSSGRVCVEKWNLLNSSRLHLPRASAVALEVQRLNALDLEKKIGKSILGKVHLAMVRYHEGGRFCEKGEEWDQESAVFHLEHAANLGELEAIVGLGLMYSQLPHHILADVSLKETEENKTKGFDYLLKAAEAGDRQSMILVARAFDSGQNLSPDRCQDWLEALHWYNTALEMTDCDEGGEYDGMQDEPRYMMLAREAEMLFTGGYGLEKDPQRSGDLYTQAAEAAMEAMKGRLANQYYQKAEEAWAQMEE
The experiment is described as follows: Inhibition of EEF2K (unknown origin) assessed as residual activity at 1 uM by Kinomescan assay relative to control.

Experiment [21] addresses Serine/threonine-protein kinase B-raf (Homo sapiens) (UniProt P15056). The experiment is described as follows: Inhibition of wild-type human partial length BRAF (S429 to E741 residues) expressed in mammalian expression system assessed as residual activity at 1 uM by Kinomescan method relative to control.

Calls of active or inactive are those of the source. The calls are words filed in the database; no cut-off is given here.

Sequence of Phosphatidylinositol 4-phosphate 3-kinase C2 domain-containing subunit beta (Homo sapiens) (O00750 whole entry, the tested form may be a part): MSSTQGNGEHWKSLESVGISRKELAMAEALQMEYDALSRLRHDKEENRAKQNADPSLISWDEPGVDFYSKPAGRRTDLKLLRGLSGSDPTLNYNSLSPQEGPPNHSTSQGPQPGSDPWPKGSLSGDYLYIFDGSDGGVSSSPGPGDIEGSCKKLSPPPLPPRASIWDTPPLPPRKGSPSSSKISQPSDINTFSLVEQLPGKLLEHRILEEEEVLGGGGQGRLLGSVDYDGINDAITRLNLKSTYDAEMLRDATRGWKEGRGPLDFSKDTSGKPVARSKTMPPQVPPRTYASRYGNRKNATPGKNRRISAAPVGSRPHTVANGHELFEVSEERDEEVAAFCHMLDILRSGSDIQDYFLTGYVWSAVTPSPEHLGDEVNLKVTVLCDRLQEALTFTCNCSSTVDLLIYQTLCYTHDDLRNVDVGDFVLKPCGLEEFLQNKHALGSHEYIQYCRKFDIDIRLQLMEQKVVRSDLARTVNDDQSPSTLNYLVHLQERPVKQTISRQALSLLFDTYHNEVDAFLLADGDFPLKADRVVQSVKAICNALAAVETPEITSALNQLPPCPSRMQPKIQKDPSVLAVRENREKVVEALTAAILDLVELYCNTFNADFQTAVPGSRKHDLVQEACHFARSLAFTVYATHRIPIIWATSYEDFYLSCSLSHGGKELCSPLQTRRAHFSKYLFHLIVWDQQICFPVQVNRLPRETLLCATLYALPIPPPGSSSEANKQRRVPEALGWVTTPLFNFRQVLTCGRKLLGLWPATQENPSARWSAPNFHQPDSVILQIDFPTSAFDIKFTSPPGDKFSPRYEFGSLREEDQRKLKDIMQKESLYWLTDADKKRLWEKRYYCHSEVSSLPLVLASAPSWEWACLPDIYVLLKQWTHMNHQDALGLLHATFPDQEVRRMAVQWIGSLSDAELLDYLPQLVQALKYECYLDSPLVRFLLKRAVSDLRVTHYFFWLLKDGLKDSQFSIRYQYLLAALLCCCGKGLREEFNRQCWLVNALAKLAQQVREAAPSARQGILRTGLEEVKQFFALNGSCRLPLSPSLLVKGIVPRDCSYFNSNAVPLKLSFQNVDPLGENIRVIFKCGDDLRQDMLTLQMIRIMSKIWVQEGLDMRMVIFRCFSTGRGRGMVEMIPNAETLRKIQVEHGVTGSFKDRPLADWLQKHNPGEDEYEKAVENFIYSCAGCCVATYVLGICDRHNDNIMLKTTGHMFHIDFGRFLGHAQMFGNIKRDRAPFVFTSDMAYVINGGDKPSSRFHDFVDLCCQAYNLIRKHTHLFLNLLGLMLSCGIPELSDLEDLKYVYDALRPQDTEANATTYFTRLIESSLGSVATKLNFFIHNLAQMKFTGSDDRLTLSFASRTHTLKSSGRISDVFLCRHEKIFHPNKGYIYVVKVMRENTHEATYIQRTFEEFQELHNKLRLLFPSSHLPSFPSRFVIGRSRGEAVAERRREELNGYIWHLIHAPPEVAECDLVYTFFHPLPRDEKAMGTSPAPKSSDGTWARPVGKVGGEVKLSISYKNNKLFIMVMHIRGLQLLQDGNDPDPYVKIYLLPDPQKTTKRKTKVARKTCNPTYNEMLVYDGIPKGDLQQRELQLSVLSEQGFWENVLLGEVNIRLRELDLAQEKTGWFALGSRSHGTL
Sequence of Mitogen-activated protein kinase kinase kinase 9 (Homo sapiens) (P80192 whole entry, looked up, the tested form may be a part): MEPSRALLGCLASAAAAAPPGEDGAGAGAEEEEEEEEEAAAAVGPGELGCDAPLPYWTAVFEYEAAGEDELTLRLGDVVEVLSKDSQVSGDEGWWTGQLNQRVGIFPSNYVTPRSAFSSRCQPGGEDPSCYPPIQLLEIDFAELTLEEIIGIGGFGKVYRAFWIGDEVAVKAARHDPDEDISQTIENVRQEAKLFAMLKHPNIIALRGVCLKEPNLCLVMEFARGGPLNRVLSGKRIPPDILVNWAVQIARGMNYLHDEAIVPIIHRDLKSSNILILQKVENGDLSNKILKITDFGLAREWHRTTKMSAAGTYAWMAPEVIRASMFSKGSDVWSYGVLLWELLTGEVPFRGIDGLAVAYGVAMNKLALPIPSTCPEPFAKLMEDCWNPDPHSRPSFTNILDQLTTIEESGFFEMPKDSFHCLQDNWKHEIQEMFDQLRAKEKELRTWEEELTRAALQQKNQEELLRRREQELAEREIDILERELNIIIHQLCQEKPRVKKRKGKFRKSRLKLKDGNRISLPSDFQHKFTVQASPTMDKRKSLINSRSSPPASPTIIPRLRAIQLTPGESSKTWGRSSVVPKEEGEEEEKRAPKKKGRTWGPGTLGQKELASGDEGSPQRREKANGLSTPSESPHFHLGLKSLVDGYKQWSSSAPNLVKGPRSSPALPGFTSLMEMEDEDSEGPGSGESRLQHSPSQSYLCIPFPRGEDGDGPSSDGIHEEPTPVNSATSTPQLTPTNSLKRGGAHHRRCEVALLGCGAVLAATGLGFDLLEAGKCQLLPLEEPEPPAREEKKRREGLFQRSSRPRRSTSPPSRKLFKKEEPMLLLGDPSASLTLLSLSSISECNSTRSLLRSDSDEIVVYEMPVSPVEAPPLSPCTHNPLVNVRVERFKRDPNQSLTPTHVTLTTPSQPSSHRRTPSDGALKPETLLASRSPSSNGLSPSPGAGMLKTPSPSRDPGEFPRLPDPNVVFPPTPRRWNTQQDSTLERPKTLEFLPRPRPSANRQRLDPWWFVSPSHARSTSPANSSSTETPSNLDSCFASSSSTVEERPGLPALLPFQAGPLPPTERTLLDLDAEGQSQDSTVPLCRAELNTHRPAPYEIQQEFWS
Sequence of Inhibitor of nuclear factor kappa-B kinase subunit alpha (Homo sapiens) (O15111 whole entry, the tested form may be a part): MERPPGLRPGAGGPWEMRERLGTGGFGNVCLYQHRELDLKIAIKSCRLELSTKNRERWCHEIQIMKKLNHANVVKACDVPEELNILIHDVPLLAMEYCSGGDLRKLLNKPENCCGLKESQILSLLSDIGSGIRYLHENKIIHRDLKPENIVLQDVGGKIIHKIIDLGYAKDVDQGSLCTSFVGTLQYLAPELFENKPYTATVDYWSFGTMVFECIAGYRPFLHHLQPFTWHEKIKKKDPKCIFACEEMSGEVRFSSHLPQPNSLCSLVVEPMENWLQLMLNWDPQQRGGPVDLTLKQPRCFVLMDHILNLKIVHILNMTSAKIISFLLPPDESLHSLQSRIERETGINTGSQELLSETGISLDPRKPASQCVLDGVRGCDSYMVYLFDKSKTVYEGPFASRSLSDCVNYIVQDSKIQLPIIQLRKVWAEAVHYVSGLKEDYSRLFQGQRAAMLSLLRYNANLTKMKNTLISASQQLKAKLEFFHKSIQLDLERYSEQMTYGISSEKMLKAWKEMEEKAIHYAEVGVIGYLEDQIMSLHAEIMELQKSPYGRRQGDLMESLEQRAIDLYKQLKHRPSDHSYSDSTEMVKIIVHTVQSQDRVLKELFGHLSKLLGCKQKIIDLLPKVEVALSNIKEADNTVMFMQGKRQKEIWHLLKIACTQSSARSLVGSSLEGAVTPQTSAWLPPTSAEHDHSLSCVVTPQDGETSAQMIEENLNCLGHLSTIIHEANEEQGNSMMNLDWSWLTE
Sequence of MAP/microtubule affinity-regulating kinase 3 (Homo sapiens) (P27448 whole entry, looked up, the tested form may be a part): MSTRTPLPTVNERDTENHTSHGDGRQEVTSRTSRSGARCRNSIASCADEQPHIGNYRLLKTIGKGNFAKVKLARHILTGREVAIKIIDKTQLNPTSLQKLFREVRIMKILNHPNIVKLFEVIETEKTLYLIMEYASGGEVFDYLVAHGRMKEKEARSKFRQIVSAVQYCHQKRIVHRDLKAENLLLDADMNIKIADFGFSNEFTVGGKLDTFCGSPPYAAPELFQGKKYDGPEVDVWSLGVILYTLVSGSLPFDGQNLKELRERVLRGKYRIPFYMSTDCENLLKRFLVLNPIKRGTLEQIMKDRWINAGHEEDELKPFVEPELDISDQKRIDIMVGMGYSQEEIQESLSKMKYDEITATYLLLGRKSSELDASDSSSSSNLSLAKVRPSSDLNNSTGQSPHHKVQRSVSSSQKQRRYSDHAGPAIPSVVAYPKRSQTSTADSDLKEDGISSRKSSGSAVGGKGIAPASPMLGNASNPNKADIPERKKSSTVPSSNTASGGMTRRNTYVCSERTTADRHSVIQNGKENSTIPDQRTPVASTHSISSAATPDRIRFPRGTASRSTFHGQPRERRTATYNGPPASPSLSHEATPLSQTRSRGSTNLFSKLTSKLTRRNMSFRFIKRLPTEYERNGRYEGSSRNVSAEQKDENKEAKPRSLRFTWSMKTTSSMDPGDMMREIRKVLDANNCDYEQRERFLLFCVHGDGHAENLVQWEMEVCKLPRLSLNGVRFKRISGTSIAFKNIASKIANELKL
Sequence of Protein kinase C epsilon type (Homo sapiens) (Q02156 whole entry, the tested form may be a part): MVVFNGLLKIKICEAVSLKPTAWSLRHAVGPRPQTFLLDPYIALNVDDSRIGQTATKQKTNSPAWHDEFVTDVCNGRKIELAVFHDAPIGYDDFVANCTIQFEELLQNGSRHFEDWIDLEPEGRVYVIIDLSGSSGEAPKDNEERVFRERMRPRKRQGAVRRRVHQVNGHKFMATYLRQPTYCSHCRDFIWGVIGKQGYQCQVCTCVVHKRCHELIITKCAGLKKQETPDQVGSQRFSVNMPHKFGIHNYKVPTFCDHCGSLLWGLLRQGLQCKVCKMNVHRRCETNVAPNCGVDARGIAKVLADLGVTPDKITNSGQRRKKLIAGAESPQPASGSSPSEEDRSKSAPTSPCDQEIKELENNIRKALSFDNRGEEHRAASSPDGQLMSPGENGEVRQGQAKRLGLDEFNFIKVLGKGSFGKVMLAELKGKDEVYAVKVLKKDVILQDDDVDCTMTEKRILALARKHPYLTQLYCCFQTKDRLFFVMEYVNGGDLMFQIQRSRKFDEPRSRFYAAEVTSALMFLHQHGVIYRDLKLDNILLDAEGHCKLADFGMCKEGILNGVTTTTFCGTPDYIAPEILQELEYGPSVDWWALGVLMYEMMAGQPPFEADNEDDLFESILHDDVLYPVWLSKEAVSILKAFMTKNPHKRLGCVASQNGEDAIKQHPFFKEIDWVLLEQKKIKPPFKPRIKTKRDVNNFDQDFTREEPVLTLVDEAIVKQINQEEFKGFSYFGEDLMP

Consider `CCNc1cc(-c2ccc(NC(=O)Nc3cccc(Cl)c3)cc2C(F)(F)F)ccn1`, for which the Activity in [1] was 97%; in experiment [2], 85%; in experiment [3] it was 66%; in experiment [4], 73%; in experiment [5] it was 95%; in experiment [6], 67%. For the same compound, the Activity in [7] amounted to 90%; in [8], 90%; in experiment [9] it was 0.45%; in experiment [10], 98%; in [11] it was 95%; in experiment [12], 95%. In addition, the Activity amounted to 67% in experiment [13]; 91% in experiment [15]; 95% in experiment [16]; 78% in experiment [17]; 93% in experiment [19]; 11% in [20]. In [21], the Activity is 93%. Moreover, the result in [14] was Active. Moreover, the IC50 – broadly, the concentration needed to halve the response being measured – in experiment [18] is 85 nM.

Values taken from ChEMBL document CHEMBL4251622, “Design, synthesis, and biological evaluation of polo-like kinase 1/eukaryotic elongation factor 2 kinase (PLK1/EEF2K) dual inhibitors for regulating breast cancer cells apoptosis and autophagy” (Eur J Med Chem, 2018).
